The text below walks through data of publication PMC5934680, “A new class of antibacterials, the imidazopyrazinones, reveal structural transitions involved in DNA gyrase poisoning and mechanisms of resistance” (Nucleic Acids Research, 2018).

In experiment [1] the target is T1, wild-type E. coli DNA gyrase (Escherichia coli, UniProt P0AES4+P0AES6). As to the kind of experiment: biochemical. To be noted: relaxed pBR322 substrate, read-out: Supercoiling IC50. On the procedure:
(§1) Supercoiling reactions were carried out as described previously ([24]) with minor adjustments. A total of 500 ng of relaxed pBR322 plasmid was used as a substrate for each 30 μl reaction. The amount of DNA gyrase (A2B2) added was normalized by testing various dilutions of the stock (A2B2 containing 0.5 mg/ml of each subunit) without compound. The amount sufficient to supercoil 50% of the substrate was then used for the testing of compounds. See Supplementary Figure S1 for details. This ensured a limiting amount of enzyme for every mutant tested. The individual gyrase subunits were either prepared in the lab as described previously ([25]) or purchased from Inspiralis.

Experiment [2] deals with E. coli DNA gyrase GyrA mutant EcS83L (Escherichia coli, UniProt P0AES4+P0AES6, S83L). As to the kind of experiment: Supercoiling inhibition assay, GyrA EcS83L mutant gyrase. The class given is biochemical. To be noted: for Resistance of EcS83L mutant enzyme in supercoiling inhibition: EcS83L compared to wt. On the procedure:
as §1
(§2) The activity of tricyclic and bicyclic IPYs (Figure 1) was tested in a supercoiling inhibition assay (Table 1) on wild-type (wt) E. coli DNA gyrase and GyrA mutants EcS83L (SaS84), EcD87A (SaE88) and EcD82N (SaD83). These residues are located in the ‘Quinolone-Resistance-Determining-Region’, frequently found mutated in resistant clinical isolates ([18],[35–38]). Based on the structures solved of FQs bound to DNA gyrase and topo IV, it has been established that both residues EcS83 and EcD87 are involved in a water–metal–ion bridge that is important for the stabilization of the ternary complex, explaining the resistance to FQs observed when these residues are mutated ([15–16],[23],[29],[39]).

The target in experiment [3] is E. coli DNA gyrase GyrA mutant EcD82N (Escherichia coli, UniProt P0AES4+P0AES6, D82N). The experiment is described as follows: Supercoiling inhibition assay, GyrA EcD82N mutant gyrase. The class given is biochemical. On the procedure:
as §1, §2

In experiment [4] the target is T1, wild-type E. coli DNA gyrase. The experiment is classed as biochemical. To be noted: purified E. coli DNA gyrase, linear plasmid DNA. How it is done: (§3) A total of 500 ng of relaxed pBR322 plasmid was used as a substrate for each 30 μl reaction.
For experiment [5], the target named is T2, Escherichia coli wt gyrase (Escherichia coli, UniProt P0AES4+P0AES6). The class given is biochemical. To be noted: 8 mM EDTA, no ATP; disappearance of linear double-strand cleavage. On the procedure:
as §3
Figure 6.

The next experiment has as its system ΔTolC E. coli. Details: method as in Jeannot et al. In revision in J Med Chem. The settings on record: ref Jeannot et al. In revision in J Med Chem; cited from earlier work.
For experiment [6], the target named is T2, Escherichia coli wt gyrase. The class given is biochemical. To be noted: 25°C, presence vs absence of ATP.
Experimental: The reactions were carried out either in the presence or absence of ATP for both compounds.
The top panels show the results of cleavage assays with various times allowed for the formation of the cleavage complexes as indicated. The experiment was performed in the presence and the absence of ATP as indicated. […] Approximately 400 ng of A2B2Escherichia coli wt gyrase was used in each assay.
Experiment [7] addresses E. coli DNA gyrase GyrA mutant EcD87A (Escherichia coli, UniProt P0AES4+P0AES6, D87A). As to the kind of experiment: Supercoiling inhibition assay, GyrA EcD87A mutant gyrase. The experiment is classed as biochemical. On the procedure:
as §1, §2

What is called IC50 is the concentration at which inhibition is half-maximal. As to `O=C(Cc1ccccc1)Nc1ccc(-c2cn(-c3ccc(O)cc3)c(=O)c3nccn23)cc1` [b1, N-{4-[7-(4-hydroxyphenyl)-8-oxo-7,8-dihydroimidazo[1,2-a]pyrazin-5-yl]phenyl}-2-phenylacetamide], the concentration for half-maximal inhibition (IC50) in experiment [1] came to 2.6 µM. Besides, in experiment [2], the IC50 came out at 1 µM and the “Resistance of EcS83L mutant enzyme in supercoiling inhibition” value is listed as “improved activity toward the EcS83L mutant enzyme compared to the wt”.

With `Cn1cc(-c2ccc(NC(=O)Cc3ccc(Cl)cc3)cc2)n2ccnc2c1=O` [b2], in experiment [1], the IC50 turned out to be 5.2 µM. In addition, in experiment [2], the IC50 was 11 µM and the “Resistance of EcS83L mutant enzyme in supercoiling inhibition” value was “less active against EcS83L”.

With `N[C@H]1CCN(c2cc3c(cc2F)n2ccnc2c(=O)n3C2CC2)C1` [t1], the IC50 in experiment [3] is 9.4 µM; in experiment [1], 0.5 µM; in experiment [7], 0.5 µM; in experiment [2] it was 3.7 µM. Besides, the “Level of double-stranded cleavage induced” value in experiment [4] was “comparable to those obtained with ciprofloxacin”. Moreover, the “Resealing of stabilized cleavage by EDTA” value in experiment [5] is on record as “slower”. The “Antibacterial activity ranking on ΔTolC E. coli” value in the experiment with ΔTolC E. coli is given as “most active tricyclic IPY”. In addition, in experiment [6], the “Effect of ATP on rate of appearance of linear DNA (cleavage)” value is given as “greatly stimulated”. In addition, the “Increase in supercoiling IC50 with EcS83L mutant compared to wt” value in experiment [2] (EcS83L vs wild-type) is about 7 fold.

For the compound `N[C@H]1CCN(c2cc3c(cc2F)n2ncnc2c(=O)n3C2CC2)C1` [t2], the IC50 in experiment [3] was 4 to 20 µM; in experiment [1] it was 1.7 µM; in experiment [7] it was 1.7 µM; in experiment [2] it was 9.5 µM. The “Resistance of EcD82N mutant enzyme in supercoiling inhibition” value in experiment [3] (EcD82N compared to wt) is recorded as “high resistance”. For the same compound, the “Resistance of EcD87A mutant enzyme in supercoiling inhibition” value in experiment [7] (EcD87A compared to wt) is given as “low to no resistance”. Moreover, in experiment [2], the “Resistance of EcS83L mutant enzyme in supercoiling inhibition” value is listed as “partial resistance”.
